The text below walks through data of US20260159519A1, “IMIDAZOPYRIDAZINE SUBSTITUTED BENZENE RING DERIVATIVE, PREPARATION METHOD, PHARMACEUTICAL COMPOSITION AND USE” (SHANGHAI SIMR BIOTECHNOLOGY CO., LTD., priority 2022, published 2026).

Test [1] has as its target T1, human α2-GABAA receptor (BZD site, membrane protein of HEK293 cells) (Homo sapiens, UniProt P18507+P47869).
T1 construct: expressed in transfected cells
Briefly: Radioligand competitive binding assay (3H-flunitrazepam) at the BZD site of the α2-GABAA receptor. The following applies: competition with 1 nM 3H-flunitrazepam; Ki calculated from IC50; read-out: α2 Ki. An excerpt:
(§1) α subunit, β subunit, and γ subunit are essential for the formation of a complete and functional GABAA receptor. In this example of the present disclosure, HEK293 cells stably expressing the human α1-GABAA receptor (α1-GABAAR) and α2-GABAA receptor (α2-GABAAR) were constructed and separately selected using the lipofection method (Felgner, P. L., et al. Proceedings of the National Academy of Sciences, 1987, 84: 7413-7417). The α1-GABAAR-HEK293 cell model simultaneously expressed the α1 subunit (for protein sequence, see GenBank accession No.: NM_000806.5), the […] (for protein sequence, see GenBank accession No.: NM_000814.5), and the […] (for protein sequence, see GenBank accession No.: NM_000816.3). The α2-GABAAR-HEK293 cell model simultaneously expressed the α2 subunit (for protein sequence, see GenBank accession No.: NM_000807.4), the β3 subunit (for protein sequence, see GenBank accession No.: NM_000814.5), and the γ2 subunit (for protein sequence, see GenBank accession No.: NM_000816.3).
(§2) The above cell lines were subcultured. The α2-GABAAR-HEK293 cells were expanded for testing the affinity of compounds to the benzodiazepine (BZD) site of the GABAA receptor. During the passage process, some of the α1-GABAAR-HEK293 cells and α2-GABAAR-HEK293 cells were suspended and plated on a slide pre-treated with Poly-D-Lysine for electrophysiological testing (method referenced from patent CN107344936A, paragraph 0586).
The affinity of the compounds for the α2-GABAA receptor was determined by competing for the binding of ^3H-flunitrazepam (isotope ^3H-labelled flunitrazepam) to the BZD site on the membrane protein of HEK293 cells stably expressing the human α2-GABAAR.
Membrane preparation: Cells were suspended in 50 mM Tris-HCl buffer (pH=7.4), homogenized 10 times for 20 seconds with a homogenizer on ice, and centrifuged at 1000 g for 10 minutes at 4° C. The supernatant was taken, and the above steps were repeated. The supernatant was centrifuged at 4° C. (33800 g; Thermo, rotor: A27-8×50) for 60 minutes. The precipitate was resuspended in Tris buffer (50 mM Tris-HCl, 10 mM MgCl2, 0.5 mM EDTA, and 10% glycerol). The protein content was determined (BCA (bicinchoninic acid) protein quantification assay based on copper ion reduction, with a BCA kit purchased from Pierce (Annoron (Beijing) Biotechnology Co., Ltd.)), and 1 mL aliquots were prepared and stored at −80° C.
Radioligand competitive binding assay: This assay was performed in a 200 μL system (96-well plate) containing 100 μL of cell membrane. The concentration of ^3H-flunitrazepam was 1 nM, and the concentrations of the test compounds were in the range of […]. Flumazenil was used as a control. 1 μL of 2 mM flumazenil (final […]) was added to each low signal control (low control, LC) well, and 1 μL of dimethyl sulfoxide was added to each high signal control (high control, HC) well. The final concentration of target membrane protein was […]. All sample stock solutions of test compounds were 10 mM dimethyl sulfoxide solutions. All the samples were diluted to a concentration of 0.2 mM with dimethyl sulfoxide, and then subjected to a 4-fold serial dilution for a total of 8 working concentration gradients. The 96-well plate was sealed with a sealing membrane and then incubated on a shaker at room temperature for 1 hour. Meanwhile, a GF/C filter plate was soaked in plate soaking buffer (0.3% PEI (polyethyleneimine, purchased from Sigma-Aldrich, model: P314), stored at 4° C.) for at least 0.5 hours. After the binding incubation was completed, the cells were harvested onto the GF/C filter plate using a cell harvester and washed four times with plate washing buffer (50 mM Tris-HCl, pH 7.4, stored at 4° C.). After drying in an oven at 50° C. for 1 hour, the dried GF/C filter plate was bottom-sealed. The residual radioactivity on the filter membrane was detected by liquid scintillation counting.

Test [2] addresses T2, human α1-GABAA receptor (α1-GABAAR-HEK293 cells) (Homo sapiens, UniProt P14867+P18507).
T2 construct: expressed in transfected cells
Briefly: Whole-cell patch-clamp electrophysiology, positive allosteric modulatory activity on α1-GABAA receptor. In kind it is cell-based. The following applies: read-out: α1-GABAA positive allosteric modulatory activity.
Description: as §1, §2
(§3) The positive regulatory activity of the test drugs on the α1-GABAA receptor and the α2-GABAA receptor was detected by the electrophysiological method. The specific method was as follows:
(§4) Compound concentration setting: The final concentration of the compounds used for screening was 100 nM. For cell lines expressing the α1-GABAA receptor, the concentration of GABA was 0.05 to 0.07 μM (approximately EC2-4). For cell lines expressing the α2-GABAA receptor, the concentration of GABA was 0.10 to 0.11 μM (approximately EC7-8). Electrophysiological testing was performed using the whole-cell patch-clamp technique, which can refer to the method reported in the literature (Nickolls, S. A., et al. British Journal of Pharmacology, 2018, 175: 708-725). The composition of the extracellular solution (ECS) for electrophysiology was as follows: 150 mM NaCl, 5 mM KCl, 2.5 mM CaCl2, 1 mM MgCl2, 10 mM HEPES, and 10 mM glucose (pH 7.4). The formulation of the intracellular solution (ICS) for electrophysiology was as follows: 140 mM CsCl, 11 mM EGTA, 10 mM HEPES, 2 mM CaCl2, 1 mM MgCl2, 4 mM MgATP, and 2 mM TEA (pH 7.3). GABA (γ-aminobutyric acid) powder was prepared into a mother liquor with pure water, which was then diluted in ECS. The compound was first prepared into a 4 mM mother liquor with dimethyl sulfoxide, which was then gradually diluted in the corresponding concentration of GABA-ECS. The solutions were freshly prepared prior to electrophysiological testing.
(§5) Electrophysiological signal acquisition was performed using an EPC 10 amplifier and PatchMaster software (HEKA) or an Axon 700B amplifier and Clampex software (AXON). The recording electrode was made through a drawing process using borosilicate glass, with an electrode resistance of 4 to 6 MΩ. Extracellular administration was performed using the ALA-VC-8PG™ system. A single, independently growing cell was selected. After the glass electrode formed a good seal with the cell, the membrane was ruptured to form the whole-cell configuration. The cell membrane potential was clamped at −60 mV and recorded in Gap-free mode. During the test, the extracellular solution was first applied extracellularly for approximately 20 seconds. After the baseline (Iprebaseline) stabilized, the extracellular solution was switched to GABA-ECS. At this point, the current induced by GABA (Igaba) could be detected. After approximately 10 to 20 seconds, when the current stabilized, the extracellular solution was switched to a mixture of the compound and GABA-ECS. […]

Test [3] concerns the target T3, human α2-GABAA receptor (α2-GABAAR-HEK293 cells) (Homo sapiens, UniProt P18507+P47869).
T3 construct: expressed in transfected cells
Briefly: Whole-cell patch-clamp electrophysiology, positive allosteric modulatory activity on α2-GABAA receptor. It counts as cell-based. The note with it: read-out: α2-GABAA positive allosteric modulatory activity.
Description: as §1, §2, §3, §4, §5
For orientation: In patch-clamp work, channel activity is measured electrically.

The structures appear in SMILES notation.

What is called Ki is the dissociation constant of the complex between target and ligand, obtained from inhibition or displacement. Regarding `CCn1cnc2c(-c3ccc(F)c(-c4cc5ccnnc5cc4OC)c3)cnnc21` [Example 112, 6-(5-(7-Ethyl-7H-imidazo[4,5-c]pyridazin-4-yl)-2-fluorophenyl)-7-methoxycinnoline], the Ki in test [1] is 7.62 nM. The activation at 0.1 µM came out at 64% in test [2] and 171% in test [3].

In the case of `CCn1cnc2c(-c3ccc(F)c(-c4ccc5c(nnn5C)c4COC)c3)cnnc21` [Example 16, 7-Ethyl-4-(4-fluoro-3-(4-(methoxymethyl)-1-methyl-1H-benzo[d][1,2,3]triazol-5-yl)phenyl)-7H-imidazo[4,5-c]pyridazine], the Ki in test [1] is 11.6 nM. Also, the activation at 0.1 µM in test [2] turned out to be 38%; in test [3], 104%.

On to `CCn1cnc2c(-c3ccc(F)c(-c4cc5cn(C6COC6)nc5cc4OC)c3)cnnc21` [Example 129, 7-Ethyl-4-(4-fluoro-3-(6-methoxy-2-(oxetan-3-yl)-2H-indazol-5-yl)phenyl)-7H-imidazo[4,5-c]pyridazine], for which, in test [1], the Ki was 3.23 nM. In addition, the activation at 0.1 µM amounted to 56% in test [2] and 128% in test [3].

For `CCn1cnc2c(-c3ccc(F)c(-c4ccc5c(ncn5C5COC5)c4OC)c3)cnnc21` [Example 115, 7-Ethyl-4-(4-fluoro-3-(4-methoxy-1-(oxetan-3-yl)-1H-benzo[d]imidazol-5-yl)phenyl)-7H-imidazo[4,5-c]pyridazine], the Ki in test [1] is 16.4 nM. Moreover, the activation at 0.1 µM in test [2] was -25%; in test [3], 85%.

Consider `CCn1cnc2c(-c3ccc(F)c(-c4cc5oc(=O)n(C6CC6)c5cc4OC)c3)cnnc21` [Example 51, 3-Cyclopropyl-6-(5-(7-ethyl-7H-imidazo[4,5-c]pyridazin-4-yl)-2-fluorophenyl)-5-methoxybenzo[d]oxazol-2(3H)-one], for which, in test [1], the Ki was 3.44 nM. Further, the activation at 0.1 µM in test [2] came out at 14%; in test [3], 90%.

Regarding `CCn1cnc2c(-c3ccc(F)c(-c4cc5cc(C(C)=O)c(=O)n(C)c5cc4OC)c3)cnnc21` [Example 1, 3-Acetyl-6-(5-(7-ethyl-7H-imidazo[4,5-c]pyridazin-4-yl)-2-fluorophenyl)-7-methoxy-1-methylquinolin-2(1H)-one], the inhibition constant (Ki) in test [1] is 6 nM. Also, the values for the activation at 0.1 µM in test [2] and in test [3] were 13% and 151%, respectively.

With `CCn1cnc2c(-c3ccc(F)c(-c4cc5cc(COC)c(=O)n(C)c5cc4OC)c3)cnnc21` [Example 166, 6-(5-(7-Ethyl-7H-imidazo[4,5-c]pyridazin-4-yl)-2-fluorophenyl)-7-methoxy-3-(methoxymethyl)-1-methylquinolin-2(1H)-one], the Ki in test [1] is 2.39 nM. Also, the figures for the activation at 0.1 µM in test [2] and in test [3] were 12% and 128%, respectively.

Regarding `CCn1cnc2c(-c3ccc(F)c(-c4cc5c(cc4OC)-c4c(cnn4C)CO5)c3)cnnc21` [Example 10, 7-(5-(7-Ethyl-7H-imidazo[4,5-c]pyridazin-4-yl)-2-fluorophenyl)-8-methoxy-1-methyl-1,4-dihydrochromeno[4,3-c]pyrazole], in test [1], the Ki was 26.9 nM. Also, the values for the activation at 0.1 µM in test [2] and in test [3] were 1% and 98%, respectively.

On to `CCn1cnc2c(-c3ccc(F)c(-c4cc5cn(C6CCN(C)CC6(F)F)nc5cc4OC)c3)cnnc21` (stereo not drawn) [Example 74, 4-(3-(2-(3,3-Difluoro-1-methylpiperidin-4-yl)-6-methoxy-2H-indazol-5-yl)-4-fluorophenyl)-7-ethyl-7H-imidazo[4,5-c]pyridazine], for which the Ki in test [1] is 6.99 nM. Also, the figures for the activation at 0.1 µM in test [2] and in test [3] were 9% and 104%, respectively.

For the compound `CCn1cnc2c(-c3ccc(F)c(-c4cc5cn(C6CCN(C7COC7)CC6)nc5cc4OC)c3)cnnc21` [Example 77, 7-Ethyl-4-(4-fluoro-3-(6-methoxy-2-(1-(oxetan-3-yl)piperidin-4-yl)-2H-indazol-5-yl)phenyl)-7H-imidazo[4,5-c]pyridazine], the Ki in test [1] is 1.13 nM. In addition, the results for the activation at 0.1 µM in test [2] and in test [3] were 66% and 104%, respectively.

`CCn1cnc2c(-c3ccc(F)c(-c4cc5cncnc5cc4OC)c3)cnnc21` [Example 164, 6-(5-(7-Ethyl-7H-imidazo[4,5-c]pyridazin-4-yl)-2-fluorophenyl)-7-methoxyquinazoline]: the Ki in test [1] was 9.24 nM. For the same compound, the activation at 0.1 µM came to 29% in test [2] and 122% in test [3].

As for `CCn1cnc2c(-c3ccc(F)c(-c4cc5c(cc4OC)N(C)C(=O)C(COC)O5)c3)cnnc21` (single isomer, unassigned) [Example 162], the Ki in test [1] is 14.5 nM. Moreover, the activation at 0.1 µM in test [2] was 42%; in test [3], 114%.

Take `CCn1cnc2c(-c3ccc(F)c(-c4ccc5c(ncn5C)c4OC)c3)cnnc21` [Example 126, 7-Ethyl-4-(4-fluoro-3-(4-methoxy-1-methyl-1H-benzo[d]imidazol-5-yl)phenyl)-7H-imidazo[4,5-c]pyridazine]: the Ki in test [1] was 5.22 nM. Besides, the activation at 0.1 µM in test [2] is -35%; in test [3] it was 90%.

On to `CCN1C(=O)Cc2cc(-c3cc(-c4cnnc5c4ncn5CC)ccc3F)c(OC)cc21` [Example 167, 1-Ethyl-5-(5-(7-ethyl-7H-imidazo[4,5-c]pyridazin-4-yl)-2-fluorophenyl)-6-methoxyindol-2-one], for which the Ki in test [1] is 13.9 nM. The activation at 0.1 µM in test [2] was 35%; in test [3] it was 125%.
